Measured values taken from patent US9198855B2, “Veterinary dermatologic composition” (Dermaconcept JMC, priority 2001, dated 2015).
Converted amounts (≈) assume the structure as drawn.

Tests used:
Candida albicans = conditions: inflammated, depilated guinea pig skin; cited from earlier work
Staphylococcus aureus = conditions: inflammated, depilated guinea pig skin; cited from earlier work
[1] = test system: Staphylococcus Intermedius; assay: Multiplication of Staphylococcus Intermedius cultures, doses 0-100 ppm in usual culture environment without solubilising agent; assay type: cell-based; conditions: for concentration completely inhibiting multiplication of Staphylococcus Intermedius cultures: complete inhibition; for concentration partly inhibiting multiplication of Staphylococcus Intermedius cultures: partial inhibition
Experimental: (§1) The minimum inhibitory concentration in case of Malassezia pachyadermatis was 25 ppm. Experiments were carried out using doses of 0, 5, 10, 25, 50 and 100 ppm of phytosphingosin and its hydrochloric acid salt on Staphylococcus Intermedius in usual culture environment without solubilising agent.

[2] = test system: Malassezia pachyadermatis; assay: In-vitro mycological study, minimum inhibitory concentration; assay type: cell-based, Malassezia pachydermatis
Experimental: as §1
However the effect is not limited to cats and dogs but extends to other furry animals, such as horses, rabbits, […]

SMILES	activity against Candida albicans (Candida albicans)	activity against Staphylococcus aureus (Staphylococcus aureus)	concentration completely inhibiting multiplication of Staphylococcus Intermedius cultures [1]	concentration partly inhibiting multiplication of Staphylococcus Intermedius cultures [1]	MIC ([2]; Malassezia pachyadermatis)	anti-fungal action against Malassezia pachydermatis ([2]; in-vitro mycological studies)
CCCCCCCCCCCCC/C=C/[C@@H](O)[C@@H](N)CO [Sphingosin, sphingosin]	little effect	little effect	–	–	–	–
CCCCCCCCCCCCCC[C@@H](O)[C@@H](O)[C@@H](N)CO.Cl [phytosphingosin hydrochloric acid salt, Phytosphingosin hydrochloric acid]	–	–	10 ppm	5 ppm	–	–
CCCCCCCCCCCCCC[C@@H](O)[C@@H](O)[C@@H](N)CO [phytosphingosin]	–	–	10 ppm	5 ppm	25 mg/L (≈ 78.7 µM)	anti-fungal action
CCCCCCCCCCCCCCC[C@@H](O)[C@@H](N)CO [sphinganin]	effective	effective	–	–	–	–
